Results taken from patent publication US8148392B2, “2-indolyl imidazo [4,5-d] phenanthroline derivatives and their use in the treatment of cancer” (Lorus Therapeutics Inc., priority 2005, dated 2012).
Like-named read-outs stand apart in the source and are kept apart here.

Tests used:
[1] = tested on: KLF4; assay: KLF4 DNA binding activity, EMSA, HT-29 nuclear extracts; assay type: cell-based, human
Procedure: (§1) Based on overlapping transcription factor binding sites on KLF4 gene promoter region (as shown in FIG. 32A), MTF-1 binding may favor increased binding of other KLF4 inducers; Sp1 and KLF4.
(§2) Electrophoretic mobility shift assay (EMSA) was performed as follows. Nuclear extracts from HT-29 cells (10^7 cells in 100 mm culture dish in each experimental group) were prepared using nuclear extraction kit (Panomics, Redwood City, Calif.). EMSA assays were performed using KLF4 and Sp1 EMSA “Gel-Shift” kits (Panomics), by following the manufacturer's instruction. Briefly, 5 μg of nuclear extract was used for each binding reaction. After 30 min of binding reaction, the samples were separated on 6% polyacrylamide gel at 4° C. at 120 V, and transferred to BrightStar™-Plus positively charged nylon membrane. The biotin-labeled probes on the membrane were visualized by using ECL detection system (Panomics).

[2] = tested on: Sp1; assay: Sp1 DNA binding activity, EMSA, HT-29 nuclear extracts; assay type: cell-based, human
Procedure: as §1, §2

[3] = tested on: intracellular zinc ions in HT-29 cells; assay: Chelation of intracellular zinc in HT-29 cells, Zinquin fluorescence; assay type: cell-based, human; details: HT-29 with or without pre-loading with 35 μM ZnCl2, 30 min
Procedure: To determine the chelation property of compound 3 with intracellular zinc ions, HT-29 cells, with or without pre-loaded with 35 μM ZnCl2 were treated with compound 3, a known zinc chelator TPEN or vehicle control (DMSO), and intracellular free zinc was determined by measuring Zinquin fluorescence as described in the preceding Example (FIG. 37). HT-29 cells (4×10^5 cells/group) were pre-treated with 35 μM ZnCl2 for 20 min, followed by addition of indicated concentrations of compound 3 or TPEN and 10 μM Zinquin for 30 min at 37° C., and the fluorescence count was measured (FIG. 37A). For measurement of chelation of endogenous zinc ions in HT-29 cells, HT-29 cells (1.5×10^6 cells/group) were treated with indicated concentrations of compound 3 and 10 μM Zinquin for 30 min at 37° C., and the fluorescence count was measured (FIG. 37B).

[4] = tested on: p21; assay: p21 mRNA in HT-29 tumour xenografts, RT-PCR; assay type: in vivo, CD-1 female nude mice; details: HT-29 xenograft, versus vehicle
Procedure: The ability of compound 3 to modulate expression of p21 in vivo was determined using the HT-29 colon tumour xenograft model as described in Example 26. The expression of p21 mRNA was analyzed by real-time polymerase chain reaction analysis using the comparative CT method as described in Example 30.

[5] = tested on: MOLT-4 leukemia cell line; assay: NCI DTP in vitro screen, MOLT-4; assay type: cell-based; details: Homo sapiens
Procedure: (§3) For example, the following methodology, which is currently employed by the NCI, can be used to assess the GI50 of a candidate compound of Formula I in the selected cancer cell lines. Briefly, cell suspensions are diluted (5000-40,000 cells per well) and 100 μL of the diluted cell suspension is added into 96-well microtiter plates. Inoculates are allowed a preincubation period of 24 h at 37° C. for stabilization. Dilutions at twice the intended test concentration of the candidate compound are added at time zero in 100 μL aliquots to the microtiter plate wells. Test compounds are generally evaluated at five 10-fold dilutions. In routine testing, the highest well concentration is usually 10E-4 M, but this may be adjusted depending on the compound being tested. […] The cells are then assayed by using the sulforhodamine B assay (see, for example, Skehan, P., et al. (1990) JNCI, J. Natl. Cancer Inst. 82, 1107-1112; and Chen, S. F., et al. (1990) Proc. Am. Assoc. Cancer Res. 31, A2644) employing a plate reader which can be used to read the optical densities.
(§4) Compounds 2 and 3 were evaluated for their antiproliferative effects in a panel of 60 human cancer cell lines as part of the in vitro anticancer screening services provided by the DTP (Developmental Therapeutics Program) of the US National Cancer Institute (NCI).

[6] = tested on: Cyclin E; assay: Cyclin E protein in HT-29 cells, Western blotting; assay type: cell-based, human; details: HT-29, 1 μM
[7] = tested on: CCRF-CEM leukemia cell line; assay: NCI DTP in vitro screen, CCRF-CEM; assay type: cell-based; details: Homo sapiens
Procedure: as §3, §4

[8] = tested on: normal cell lines PrEC, HMEC, WI38 and cancer cell lines DU145, MDA-MB-435, HT-29; assay: Cancer cell selectivity, IC90 in normal versus cancer cell lines (XTT); assay type: cell-based, human; details: average IC90 of all normal / average IC90 of all cancer cell lines, 6 to 7 days
Source text: An exemplary method of assessing the differential sensitivity between normal and cancer cells for a compound has been described by Vassilev et al. (Anti-Cancer Drug Design (2001) 16:7). This method involves the comparison of IC90 values, i.e. the molar concentration of a test compound required to cause 90% growth inhibition of exponentially growing cells. Thus, the IC90 values for candidate compounds can be evaluated in various cancer cell lines (such as those outlined above) and normal cells (such as HUVEC and/or WI38 cells) and compared. IC90 values can be measured using a variety of standard techniques as known in the art. Cancer cell selectivity is calculated as a ratio between the average IC90 for all normal cell lines and the average IC90 for all cancer cell lines. Compounds with an IC90 ratio (normal/cancer) of >4 are considered to be selective for cancer cells (L. T. Vassilev et al., Anti-cancer Drug Design, 2001, 16: 7-17).
The normal cells lines used were PrEC (prostate), HMEC (breast), and WI38 (lung fibroblast) cell lines and the cancer cells lines were DU145 (prostate), MDA-MB-435 (breast), HT-29 (colon). IC90 values were also determined for the controls doxorubicin and etoposide. The cells were cultured as generally described in Example 13. Various concentrations of the compounds were incubated with the cells for 6 to 7 days, and the number of proliferating cells was measured using the XTT assay. Cancer cell selectivity was calculated as a ratio between the average IC90 for all normal and the average IC90 for all cancer cell lines.

[9] = tested on: panel of 60 human cancer cell lines; assay: NCI DTP in vitro anticancer screen, panel of 60 human cancer cell lines; assay type: cell-based
Procedure: For example, the following methodology, which is currently employed by the NCI, can be used to assess the GI50 of a candidate compound of Formula I in the selected cancer cell lines. Briefly, cell suspensions are diluted (5000-40,000 cells per well) and 100 μL of the diluted cell suspension is added into 96-well microtiter plates. Inoculates are allowed a preincubation period of 24 h at 37° C. for stabilization. Dilutions at twice the intended test concentration of the candidate compound are added at time zero in 100 μL aliquots to the microtiter plate wells. Test compounds are generally evaluated at five 10-fold dilutions. In routine testing, the highest well concentration is usually 10E-4 M, but this may be adjusted depending on the compound being tested. The cells are incubated with the test compound for 48 h in 5% CO2 atmosphere and 100% humidity. The cells are then assayed by using the sulforhodamine B assay (see, for example, Skehan, P., et al. (1990) JNCI, J. Natl. Cancer Inst. 82, 1107-1112; and Chen, S. F., et al. (1990) Proc. Am. Assoc. Cancer Res. 31, A2644) employing a plate reader which can be used to read the optical densities.
as §4
Analysis of the effects of compounds of Formula I on in vitro and in vivo cell growth inhibition were performed utilizing the methods as described in the preceding Examples. As shown in Example 12, cell growth inhibition by the parental compound 3 was screened by National Cancer Institute 60-cell line assay and leukemia, non-small cell cancer, colon cancer, renal cancer and prostate cancer panels were especially sensitive to compound 3.

Cc1[nH]c2ccccc2c1-c1nc2c3cccnc3c3ncccc3c2[nH]1 [Compound 3]
DNA binding activity of KLF4 [1]: Increased DNA binding activities | DNA binding activity of Sp1 [2]: Increased DNA binding activities | intracellular free zinc (Zinquin fluorescence) [3]: Dose-dependent decrease in both pre-loaded zinc and endogenous zinc levels | p21 expression in tumour xenografts [4]: induced the expression of p21 | GI50 [5]: 16 nM | Cyclin E expression [6]: decreased expression of Cyclin E | GI50 [7]: 30 nM | Normal/cancer IC90 ratio [8]: >4.3 | GI50 ([9]; Homo sapiens, NCI 60-cell line assay, read-out: average GI50 of all cell lines tested): 620 nM | GI50 ([9]; Homo sapiens, span of average values in the NCI panel (FIG. 2), read-out: GI50 average values): 610 to 12300 nM | GI50 ([9]; average over human tumour cell lines of the NCI panel (FIG. 1), read-out: average GI50 (growth inhibition by 50%)): < 2000 nM | selectivity among cancer types of the NCI panel ([9]; in words): selective inhibitor of colon, leukemia, non-small cell lung cancer, and prostate cell lines
